# Laboratory results from PMC7211193, “Evaluation of absorption, distribution, metabolism, and excretion of [^14C]-rucaparib, a poly(ADP-ribose) polymerase inhibitor, in patients with advanced solid tumors” (Investigational New Drugs, 2019).
# Several values for one entry are separate records, joined by “and”; a condition that tells them apart may be missing. Identical values can stand only once.
# Experiment: Total radioactivity (TRA) pharmacokinetics in plasma and blood by liquid scintillation counting
# Type: in vivo, human
# Settings: for Cmax, total radioactivity in plasma: patients N = 6
# Description: Six patients received a single oral dose of [^14C]-rucaparib 600 mg (approximately 5.18 MBq or 140 μCi) on day 1 after fasting for 10 h and were confined at the study site for the collection of blood samples and excreta for a maximum of 12 days.
# Blood samples were collected in K2 ethylenediaminetetraacetic acid (K2-EDTA) tubes at the following time points: 0 (predose), 1, 2, 3, 4, 8, 12, 24, 48, 72, 96, 120, and 144 h after administration. Blood samples were taken via an indwelling intravenous catheter or by direct vein puncture into appropriate tubes. Aliquots of blood samples were centrifuged at 1600–2000×g for 10 min at 4 °C, and supernatants were collected for plasma samples. All plasma and blood samples were stored at −70 °C until analysis. Plasma and blood samples were evaluated for total radioactivity (TRA) by liquid scintillation (LSC), parent drug concentrations by liquid chromatography (LC) with tandem mass spectrometry (MS/MS) analyses, and metabolite profiling by LC coupled to diode array ultraviolet (UV) detection and MS or radioactivity detection.
# TRA analysis was performed on a Liquid Scintillation Counter Tri-Carb Model 3100TR (PerkinElmer). Aliquots of blood (300 μL), plasma (250 μL), and urine (1 mL) were transferred to scintillation vials. Blood samples were incubated at ≥60 °C with SOLVABLE (1 mL). After cooling to room temperature, EDTA (0.1 M, 100 μL) and hydrogen peroxide (225 μL) were added to dissolve blood cells, reduce foaming, and decrease color intensity. Finally, after incubation at ≥45 °C and ≥60 °C, Ultima Gold (≥5-fold) was added, and the samples were analyzed with LSC. For urine samples, Ultima Gold (≥5-fold) was added, and the samples were analyzed with LSC.
# Blood and plasma TRA data and the plasma concentration of rucaparib were used to determine the Cmax, tmax, AUC from time zero to time of last measurable concentration (AUC0-t), and AUC from time zero to infinity (AUC0-inf), apparent volume of distribution (Vd/F), apparent clearance (CL/F), and terminal half-life (t1/2). Phoenix WinNonlin software version 6.3 or higher (Certara, Princeton, NJ, USA) was used to run a noncompartmental method analysis on the PK data.
# [1] = single oral [14C]-rucaparib 600 mg, N = 6, mean ± SD
# [2] = single oral [14C]-rucaparib 600 mg, N = 6, mean ± SD, listed as rucaparib
# [3] = single oral [14C]-rucaparib 600 mg, N = 6, median (range)
smiles,measurement,setting,value
"CNCc1ccc(-c2[nH]c3cc(F)cc4c3c2CCNC4=O)cc1 [Rucaparib, rucaparib]","AUC0-24h/AUC0-inf ratio, blood TRA",in vivo,0.563
same,"AUC0-24h/AUC0-inf ratio, plasma TRA",in vivo,0.461
same,"AUC0-inf, total radioactivity in blood",[1],"25,500 ± 5510 ng Eq h/mL"
same,"AUC0-inf, total radioactivity in plasma",[1],"30,000 ± 7810 ng Eq h/mL"
same,"AUC0-t, total radioactivity in blood",[1],"18,100 ± 5460 ng Eq h/mL"
same,"AUC0-t, total radioactivity in plasma",[1],"24,100 ± 8580 ng Eq h/mL"
same,"Blood to plasma ratio of total radioactivity, AUC0-inf",[1],0.781 ± 0.041
same,"Blood to plasma ratio of total radioactivity, Cmax",[1],1.00 ± 0.12
same,"CL/F, total radioactivity in blood",[1],22.6 ± 2.22 L/h
same,"CL/F, total radioactivity in plasma",[1],19.6 ± 4.83 L/h
same,"Cmax, total radioactivity in blood",[1],882 ± 355 ng Eq/mL
same,"Vd/F, total radioactivity in blood",[1],911 ± 246 L
same,"Vd/F, total radioactivity in plasma",[1],814 ± 129 L
same,"t1/2, total radioactivity in blood",[1],28.3 ± 8.49 h
same,"t1/2, total radioactivity in plasma",[1],30.4 ± 8.89 h
same,"Blood to plasma ratio of total radioactivity, Cmax",[2],1.0
same,"t1/2, total radioactivity in blood",[2],> 25 h
same,"t1/2, total radioactivity in plasma",[2],> 25 h and 30.4 h
same,"tmax, total radioactivity in blood",[3],4 (0.933–8.00) h
same,"tmax, total radioactivity in plasma",[3],4 (0.933–8.00) h
same,"tmax, total radioactivity in blood","single oral [14C]-rucaparib 600 mg, N = 6, median (range), listed as [^14C]-rucaparib",approximately 4 h
same,"tmax, total radioactivity in blood","single oral [14C]-rucaparib 600 mg, N = 6, median (range), listed as rucaparib",4 h
same,"Cmax, total radioactivity in plasma","single oral [14C]-rucaparib 600 mg, mean ± SD",880 ± 309 ng Eq/mL
same,"Cmax, total radioactivity in plasma","single oral [14C]-rucaparib 600 mg, mean ± SD, listed as rucaparib",880 ng Eq/mL
